Measured values taken from patent US9096518B2, “Substituted hydroxamic acids and uses thereof” (Millennium Pharmaceuticals, Inc., priority 2009, dated 2015).

Target: T1, purified human HDAC6 (Homo sapiens, UniProt Q9UBN7)
T1 construct: purchased BPS Bioscience 5006
T1 sequence (Q9UBN7 1-1215): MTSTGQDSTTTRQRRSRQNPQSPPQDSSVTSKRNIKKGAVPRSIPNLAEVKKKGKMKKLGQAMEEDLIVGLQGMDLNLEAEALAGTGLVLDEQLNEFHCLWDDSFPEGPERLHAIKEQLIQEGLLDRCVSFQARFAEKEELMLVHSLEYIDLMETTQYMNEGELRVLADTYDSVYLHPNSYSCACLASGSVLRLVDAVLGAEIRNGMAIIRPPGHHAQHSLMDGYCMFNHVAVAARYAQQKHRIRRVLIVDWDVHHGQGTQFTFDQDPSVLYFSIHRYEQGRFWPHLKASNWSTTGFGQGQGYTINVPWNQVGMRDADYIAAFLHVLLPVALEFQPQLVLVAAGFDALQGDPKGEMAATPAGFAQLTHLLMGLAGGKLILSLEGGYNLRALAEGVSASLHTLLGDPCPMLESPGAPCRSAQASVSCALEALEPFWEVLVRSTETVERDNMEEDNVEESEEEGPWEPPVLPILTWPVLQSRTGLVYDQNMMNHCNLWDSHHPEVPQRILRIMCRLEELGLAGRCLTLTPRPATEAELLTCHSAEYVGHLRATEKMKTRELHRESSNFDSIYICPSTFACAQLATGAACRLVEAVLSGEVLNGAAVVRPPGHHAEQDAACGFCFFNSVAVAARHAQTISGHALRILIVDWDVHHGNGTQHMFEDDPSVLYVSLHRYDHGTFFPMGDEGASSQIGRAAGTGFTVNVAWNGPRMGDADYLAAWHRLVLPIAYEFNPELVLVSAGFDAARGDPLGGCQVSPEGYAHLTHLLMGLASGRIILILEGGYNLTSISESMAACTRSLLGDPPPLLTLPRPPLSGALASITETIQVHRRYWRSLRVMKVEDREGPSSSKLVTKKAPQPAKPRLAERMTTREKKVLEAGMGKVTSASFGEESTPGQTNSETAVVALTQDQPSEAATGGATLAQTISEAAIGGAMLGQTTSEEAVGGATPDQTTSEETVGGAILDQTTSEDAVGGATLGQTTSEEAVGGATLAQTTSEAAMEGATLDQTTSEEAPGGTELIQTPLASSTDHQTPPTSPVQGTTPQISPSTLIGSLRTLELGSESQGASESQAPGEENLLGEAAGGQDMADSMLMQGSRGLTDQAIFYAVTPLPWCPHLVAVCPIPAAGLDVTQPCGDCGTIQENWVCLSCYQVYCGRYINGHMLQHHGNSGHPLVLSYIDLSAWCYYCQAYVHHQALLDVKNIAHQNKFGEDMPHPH
Experiment: HDAC6 Enzyme Assay
Type: biochemical
Summary of the method: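 Purified human HDAC6 incubated 1 h at 30 °C with Ac-Arg-Gly-Lys(Ac)-AMC peptide and compound; reaction stopped with trichostatin A, then trypsin releases AMC, read by fluorescence (Ex 340/Em 460 nm). IC50 from concentration-response curves relative to DMSO controls.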

O=C(NO)c1ccc2c(c1)CCN(C(=O)Nc1ccc(-c3ccccc3)s1)C2 [Compound 95, N^6-hydroxy-N^2-(5-phenyl-2-thienyl)-3,4-dihydroisoquinoline-2,6(1H)-dicarboxamide] and O=C(NO)c1ccc2c(c1)CCN(C(=O)Nc1cccc3ccccc13)C2 [Compound 100, N^6-hydroxy-N^2-1-naphthyl-3,4-dihydroisoquinoline-2,6(1H)-dicarboxamide] cannot be ordered by IC50: < 50 nM for the first, < 50 nM for the second.

First: C[C@H](C(=O)N1CCc2cc(C(=O)NO)ccc2C1)c1ccccc1 [Compound 29, N-hydroxy-2-[(2S)-2-phenylpropanoyl]-1,2,3,4-tetrahydroisoquinoline-6-carboxamide]
Second: CC(c1ccccc1)N1CCc2cc(C(=O)NO)ccc2C1 (centres unmarked) [Compound 110, N-hydroxy-2-(1-phenylethyl)-1,2,3,4-tetrahydroisoquinoline-6-carboxamide]
The IC50 of the first is lower: 50 to 100 nM for the first, 100 to 500 nM for the second. The first is the more potent here.

O=C(NO)c1ccc2c(c1)CCCN(C(=O)Cc1csc3ccc(Cl)cc13)C2 [Compound 251, 2-[(5-chloro-1-benzothien-3-yl)acetyl]-N-hydroxy-2,3,4,5-tetrahydro-1H-2-benzazepine-7-carboxamide] and O=C(NO)c1ccc2c(c1)CCCN(C(=O)c1csc3ccccc13)C2 [Compound 258, 2-(1-benzothien-3-ylcarbonyl)-N-hydroxy-2,3,4,5-tetrahydro-1H-2-benzazepine-7-carboxamide] fall in the same range of IC50: 100 to 500 nM for the first, 100 to 500 nM for the second.

First: CCCCS(=O)(=O)N1CCc2cc(C(=O)NO)ccc2C1 [Compound 38, 2-(butylsulfonyl)-N-hydroxy-1,2,3,4-tetrahydroisoquinoline-6-carboxamide]
Second: CCCS(=O)(=O)N1CCc2cc(C(=O)NO)ccc2C1 [Compound 40, N-hydroxy-2-(propylsulfonyl)-1,2,3,4-tetrahydroisoquinoline-6-carboxamide]
The IC50 of the first is lower: 50 to 100 nM for the first, 100 to 500 nM for the second. The first is the more potent here.

Compared with CC(C)(C)C(=O)N1CCCc2cc(C(=O)NO)ccc2C1 [Compound 82, 2-(2,2-dimethylpropanoyl)-N-hydroxy-2,3,4,5-tetrahydro-1H-2-benzazepine-7-carboxamide], CC(C)CC(=O)N1CCc2cc(C(=O)NO)ccc2C1 [Compound 9, N-hydroxy-2-(3-methylbutanoyl)-1,2,3,4-tetrahydroisoquinoline-6-carboxamide] is lower in IC50: 100 to 500 nM for the first, 50 to 100 nM for the second. The second is the more potent here.

CC(NC(=O)N1CCc2cc(C(=O)NO)ccc2C1)c1cccc2ccccc12 (centres unmarked) [Compound 103, N^6-hydroxy-N^2-[1-(1-naphthyl)ethyl]-3,4-dihydroisoquinoline-2,6(1H)-dicarboxamide] and O=C(NO)c1ccc2c(c1)CCN(C(=O)Nc1cccc(C(F)(F)F)c1)C2 [Compound 98, N^6-hydroxy-N^2-[3-(trifluoromethyl)phenyl]-3,4-dihydroisoquinoline-2,6(1H)-dicarboxamide] cannot be ordered by IC50: < 50 nM for the first, < 50 nM for the second.

O=C(NO)c1ccc2c(c1)CCN(C(=O)C13CC4CC(CC(C4)C1)C3)C2 [Compound 33, 2-[1-adamantylcarbonyl]-N-hydroxy-1,2,3,4-tetrahydroisoquinoline-6-carboxamide] and O=C(NO)c1ccc2c(c1)CCN(C(=O)C1(c3ccc(Cl)cc3)CCC1)C2 [Compound 4, 2-{[1-(4-chlorophenyl)cyclobutyl]carbonyl}-N-hydroxy-1,2,3,4-tetrahydroisoquinoline-6-carboxamide] cannot be ordered by IC50: < 50 nM for the first, < 50 nM for the second.

First: CC(C)(C)c1ccc(S(=O)(=O)N2CCc3cc(C(=O)NO)ccc3C2)cc1 [Compound 44, 2-[(4-tert-butylphenyl)sulfonyl]-N-hydroxy-1,2,3,4-tetrahydroisoquinoline-6-carboxamide]
Second: O=C(NO)c1ccc2c(c1)CCN(Cc1ccc(OC(F)(F)F)cc1)C2 [Compound 61, N-hydroxy-2-[4-(trifluoromethoxy)benzyl]-1,2,3,4-tetrahydroisoquinoline-6-carboxamide]
The IC50 of the first is lower: 50 to 100 nM for the first, 100 to 500 nM for the second.

In the case of Cc1ccc2[nH]c(C(=O)N3CCCc4cc(C(=O)NO)ccc4C3)cc2c1 [Compound 253, N-hydroxy-2-[(5-methyl-1H-indol-2-yl)carbonyl]-2,3,4,5-tetrahydro-1H-2-benzazepine-7-carboxamide], the IC50 is reported as < 50 nM.
